US7388006B2, “Non-steroidal progesting” (Bayer Schering Pharma AG, priority 2002, dated 2008)

Key:
rat mammary epithelium = experiment: MIB-5 immunohistochemistry, proliferation of the mammary epithelium; format: in vivo; details: FIG. 2
Procedure: In order to determine the effects of test progestins according to the present invention, in particular compound ((+)-1), in mammary gland differentiation and proliferation, premature female rats (Wistar Han, SPF) are ovariectomized at the age of 21 days, 4 to 6 days before treatment start. The animals are treated for 6 days with standard estrogen (estrone (E1), 70 μg/kg) and the test progestin ((+)-1) (application volume: 0.1 ml/50 g body weight; vehicle: benzylbenzoate/castor oil (1+4 v/v); subcutaneous). Control groups are e.g.: vehicle, estrone without progestin, estradiol together with a known progestin, e.g. R5020 (promegestone). After the 6-day treatment the animals are killed with carbon dioxide.
For the whole mount staining, animals are shaved in the left abdominal inguinal mammary region, which is cut from the body together with the skin. For the histological/immunohistochemical analyses the right abdominal inguinal mammary gland is cut from the body together with the connective-tissue adhered thereto and fixed in 3.7% formalin in PBS (phosphate buffer saline; without Ca^2+/Mg^2+).
For a more detailed evaluation of the proliferation of the mammary epithelium, cells are stained with the proliferation marker MIB-5 as follows (cf. FIG. 2): Mammary glands are fixed in 4% formaldehyde/PBS for 24 h and embedded in paraffm. 4 μm sections are spread on slides, deparaffinized, treated with microwaves for 10 min. in citrate buffer pH 6.0 and rinsed with PBS. Slides are then blocked with 3% H2O2/methanol for 15 min., Blockingkit (Vektor, no. SP-2001) for 10 min. and rat serum (Sigma, no. S-7648) diluted 1:2 in PBS for 30 min to reduce nonspecific staining and rinsed in PBS. Slides are incubated for 1 hour with monoclonal antibody MIB-5 (Dianova, no. Dia-5055), which is specific for the rat Ki-67 antigen (1:200 diluted in PBS/0.2% BSA). […]
In order to characterize a test compound, the percentage of MIB-5 stained mammary epithelium cells is determined. […]

[1] = tested on: prostate weight and seminal vesicle of orchidectomized rats; experiment: Androgenic/anti-androgenic activity in vivo in orchidectomized rats (prostate weight, seminal vesicle); design: species or system rat
Excerpt: The absence of androgenic as well as anti-androgenic activity in vivo was confirmed by tests performed with orchidectomized rats (change in prostate weight and in the seminal vesicle).

[2] = target: T1, mineralocorticoid receptor (MR) (Homo sapiens, UniProt P08235); experiment: Binding to the mineralocorticoid receptor in vitro
T1 sequence (P08235 1-984): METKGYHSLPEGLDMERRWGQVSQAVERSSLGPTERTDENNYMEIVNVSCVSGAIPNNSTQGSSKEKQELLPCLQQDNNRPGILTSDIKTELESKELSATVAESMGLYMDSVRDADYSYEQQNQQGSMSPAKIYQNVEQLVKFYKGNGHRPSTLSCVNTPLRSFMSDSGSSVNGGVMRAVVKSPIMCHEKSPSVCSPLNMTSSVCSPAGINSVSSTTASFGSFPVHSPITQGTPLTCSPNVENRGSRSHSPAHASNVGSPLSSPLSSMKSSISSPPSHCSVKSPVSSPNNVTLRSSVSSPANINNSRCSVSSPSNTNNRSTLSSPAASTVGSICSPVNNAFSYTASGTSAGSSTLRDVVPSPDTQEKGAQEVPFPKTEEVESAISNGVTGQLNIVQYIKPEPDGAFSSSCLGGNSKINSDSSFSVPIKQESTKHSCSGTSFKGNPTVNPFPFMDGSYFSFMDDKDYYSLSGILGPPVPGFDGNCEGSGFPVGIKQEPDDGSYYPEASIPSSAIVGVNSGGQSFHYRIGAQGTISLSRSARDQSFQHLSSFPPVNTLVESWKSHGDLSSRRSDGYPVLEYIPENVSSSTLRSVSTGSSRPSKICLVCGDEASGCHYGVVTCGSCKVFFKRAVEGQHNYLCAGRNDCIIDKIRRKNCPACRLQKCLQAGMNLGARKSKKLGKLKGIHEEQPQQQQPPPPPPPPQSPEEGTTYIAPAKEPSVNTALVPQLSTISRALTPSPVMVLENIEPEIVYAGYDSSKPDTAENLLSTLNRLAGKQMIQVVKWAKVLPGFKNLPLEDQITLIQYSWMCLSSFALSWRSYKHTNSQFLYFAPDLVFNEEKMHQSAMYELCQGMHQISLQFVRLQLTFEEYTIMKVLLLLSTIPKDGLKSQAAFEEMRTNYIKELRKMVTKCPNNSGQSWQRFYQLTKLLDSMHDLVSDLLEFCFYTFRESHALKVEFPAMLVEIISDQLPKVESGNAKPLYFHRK

Compound: O=C1OCc2cc(NC(=O)C(O)(CC3(c4cc(C(F)(F)F)ccc4F)CC3)C(F)(F)F)ccc21 (single isomer, unassigned; (+)) [((+)-1), (+)-5-{2-hydroxy-3-[1-(2-fluoro-5-trifluoromethylphenyl)-cyclopropyl]-2-trifluoromethyl-propionylamino}-phthalide]
- MIB-5 positive cells (rat mammary epithelium; 1 mg/kg/d): ~12%
- MIB-5 positive cells, dose dependence in words (rat mammary epithelium; increasing concentrations): dose-dependent decrease of MIB-5 positive cells
- Androgenic and anti-androgenic activity in vivo [1]: no androgenic as well as no anti-androgenic activity in vivo
- Affinity for the mineralocorticoid receptor (MR) [2]: negligible affinity
